Measured values: PMC10342118, “Microbial Metabolites of 3-n-butylphthalide as Monoamine Oxidase A Inhibitors” (International Journal of Molecular Sciences, 2023)
Where “and” joins values, the source holds several entries; their conditions need not be identical. Identical values can stand only once. Like-named read-outs stand apart in the source and are kept apart here. Marks after values point to notes of the source that are not given here.

Columns and labels:
MAO-A [1] = molecular target: T1, MAO-A (Homo sapiens, UniProt P21397); design: method as in PMID 23374869; conditions: MAO-A inhibition; cited from earlier work
T1 sequence (P21397 1-527): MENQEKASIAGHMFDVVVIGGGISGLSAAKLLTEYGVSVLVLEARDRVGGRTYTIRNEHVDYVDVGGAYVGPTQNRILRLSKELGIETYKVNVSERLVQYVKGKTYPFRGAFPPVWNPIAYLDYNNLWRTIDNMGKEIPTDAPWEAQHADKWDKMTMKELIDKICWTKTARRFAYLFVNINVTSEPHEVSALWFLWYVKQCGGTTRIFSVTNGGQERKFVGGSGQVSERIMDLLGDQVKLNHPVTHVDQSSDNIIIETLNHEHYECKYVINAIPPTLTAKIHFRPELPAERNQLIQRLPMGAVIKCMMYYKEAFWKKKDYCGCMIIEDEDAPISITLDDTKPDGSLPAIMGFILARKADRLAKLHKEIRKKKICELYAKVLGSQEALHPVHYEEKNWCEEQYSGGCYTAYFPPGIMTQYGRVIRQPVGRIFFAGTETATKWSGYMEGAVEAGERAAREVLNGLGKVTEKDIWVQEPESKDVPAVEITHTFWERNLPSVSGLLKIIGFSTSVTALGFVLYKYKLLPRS

MAO-A [2] = molecular target: T1, MAO-A; assay: Isothermal titration calorimetry (ITC) of the interaction of MAO-A with the compounds; assay type: binding
Description: (§1) Protein-ligand interaction analysis was performed using isothermal titration calorimetry (ITC). During the analysis, the heat of uptake or release, due to the interaction of MAO-A with the tested compounds, was recorded. In this way, raw data were obtained in the form of exothermic heat versus time graphs. Additionally, the ligand was injected into 1% DMSO with methanol to subtract the energetic effects of the dilution of the ligand solution. The highest negative change in enthalpy was characterized by the interaction of the enzyme with compounds 3 (−19.19 kJ/mol) and 4 (−13.37 kJ/mol), and the lowest value of ΔH was recorded during interactions with compound 1 (−4.51 kJ/mol). […] Affinity (ΔG) values were more evenly distributed between compound 1, compounds 1 with 4, 2 with 4, and 2 with 3. […] The ability of the ligands to inhibit […] activity was described on the basis of the IC50 parameter.
(§2) A MicroCal PEAQ-ITC200 calorimeter (Malvern, Worcestershire, UK) was used to study the interactions of MAO-A with the compounds. The enzyme and compounds were prepared in 1% DMSO with methanol. The measurements were performed at 36.6 °C. The stirring speed was set to 307 rpm, and a total of 19 injections were performed within 50 min, with the reference power set to 10.00 μcal/s. All sample solutions were thoroughly degassed before use. The calorimetric cell was filled with a 20 μM (350 µL) MAO-A sample, and the syringe (2 µL of injection volume) was loaded with a 1 mM/L solution or/and 5-HT (1 mM/L). The ITC data were processed using MicroCal PEAQ-ITC analysis software with calorimetric routines. The following parameters were determined: the standard interaction Gibbs energy (ΔG), standard interaction enthalpy (ΔH), entropy (ΔS), equilibrium constant (KD), and stoichiometry of reaction (N).

MAO-A [3] = molecular target: T1, MAO-A; assay: Inhibition of 5-HT deamination by the MAO-A enzyme (ITC); assay type: biochemical; conditions: for IC50: rate of 5-HT deamination
Description: as §1
Compounds 4 and 4 combined with 2 were at a similar level of about 5 μmol/μmol of the enzyme. Substrate 1, tested with lactones 2 and 3, turned out to be the least beneficial compounds, with a high concentration inhibiting the activity of the enzyme by 50%, and had the least favorable affinity. This effect can be explained by the binding of several compounds in the mixture to different MAO-A residues at the active site and in other regions. Molecular docking can be used in future research to confirm this assumption.
as §2

primary rat hepatocytes = conditions: concentration 0–500 µM; cited from earlier work
[4] = test system: primary human hepatocytes; conditions: concentration 0–500 µM; cited from earlier work
[5] = test system: primary rat hepatocytes and primary human hepatocytes; conditions: repetitive administration; cited from earlier work
[6] = design: method as in PMID 23169608; conditions: in vivo; cited from earlier work
[7] = design: method as in PMID 34060121; conditions: rat plasma and liver microsomes; cited from earlier work
[8] = ITC, 36.6 °C, mean ± SD, n = 3, read-out: KD
[9] = KM 5-HT 0.35 mmol, mean ± SD, n = 3, read-out: Ki

Row | Structure (SMILES) | Ki (MAO-A [1]) | Kd (MAO-A [2]) | KA ∗ 10^3 (MAO-A [2]; ITC, 36.6 °C, mean ± SD, n = 3) | ∆G (affinity) (MAO-A [2]; ITC, 36.6 °C, mean ± SD, n = 3) | ∆H (MAO-A [2]; ITC, 36.6 °C, mean ± SD, n = 3) | ∆S (MAO-A [2]; ITC, 36.6 °C, mean ± SD, n = 3) | Ki (MAO-A [3]) | toxicity (primary rat hepatocytes) | toxicity [4] | cell viability [5] | Kd (MAO-A [2]; [8]) | Ki (MAO-A [3]; [9]) | rank among circulating human metabolites of 3-n-butylphthalide [6] | rank among metabolites of 3-n-butylphthalide [7] | IC50 (MAO-A [3])
1 | O=C1OCc2ccc(OCCCc3ccccc3)cc21 [6-phenyl-propoxyphthalide] | 0.062 µM |  |  |  |  |  |  |  |  |  |  |  |  |  | 
2 | CCCCC1OC(=O)c2ccccc21 (centres unmarked) [Compound 1, 3-n-butylphthalide] |  | 24.3 ± 1.39 µM | 41.15 ± 0.36 ^d 10^3 L/mol | -6.532 ± 0.272 kcal/mol | −4.51 kJ/mol and −4.51 ± 0.02 ^e kJ/mol | 73.85 ± 1.05 ^d J/mol ∗ K | 241 ± 3.55 µM | not toxic | not toxic | reduction in cell viability |  |  |  |  | 
3 | CC(O)CCC1OC(=O)c2ccccc21 (centres unmarked) [Compound 2, 3-n-butyl-10-hydroxyphthalide] |  |  | 33.44 ± 0.15 ^a 10^3 L/mol | −26.79 ± 1.55 ^j kJ/mol | −7.77 ± 0.01 ^e kJ/mol | 61.55 ± 1.84 ^d J/mol ∗ K |  |  |  |  | 29.9 ± 1.09 µM | 994 ± 3.18 µM | dominant circulating human metabolite | main metabolite | 
4 | O=C1OC(CCCCO)c2ccccc21 (centres unmarked) [Compound 3, 3-n-butyl-11-hydroxyphthalide] |  |  | 4.18 ± 0.35 ^e 10^3 L/mol | −23.49 kJ/mol and −23.49 ± 1.42 ^i kJ/mol | −19.19 kJ/mol and −19.19 ± 0.01 ^f kJ/mol | 13.92 ± 0.92 ^a J/mol ∗ K |  |  |  |  | 239 ± 4.25 µM | < 0.001 µM |  |  | 1.29 μmol/μmol of enzyme
5 | O=C(O)CCCC1OC(=O)c2ccccc21 (centres unmarked) [Compound 4, 3-n-butylphthalide-11-oic acid] |  |  | 14.83 ± 0.25 ^e 10^3 L/mol | −28.42 kJ/mol and −28.42 ± 1.43 ^j kJ/mol | −13.37 kJ/mol and −13.37 ± 0.02 ^f kJ/mol | 48.71 ± 1.05 ^a J/mol ∗ K |  |  |  |  | 67.4 ± 3.15 µM | 128 ± 1.25 µM |  |  | about 5 μmol/μmol of enzyme
